14 compounds from PubChem BioAssay (NCI) can be followed below.

What all share (assay): inhibition of tumour cell growth, NCI panel, 48 h
Assay [1] has as its system UACC-257 melanoma.
Assay [2] concerns HS 578T breast.
The test system of assay [3] is SF-268 CNS.
For assay [4], the system named is HOP-62 NSCLC.
For assay [5], the system named is MDA-MB-231 breast.
The subject of assay [6] is SNB-19 CNS.
The test system of assay [7] is TK-10 renal.
Assay [8] concerns BT-549 breast.

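Results reflect a 48-hour exposure of cells in 96-well plates to compound at five concentrations. GI50: concentration for 50% inhibition of growth. Definition used: TGI = concentration required for complete inhibition of growth.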

As to `CSc1cccc(NC(=O)OC2CCCCCCCCCCC2)c1`, the TGI in assay [1] is 38.7 µM; in assay [2] it was above 100 µM; in assay [3], above 100 µM; in assay [4] it was 48.3 µM; in assay [5] it was 66.8 µM; in assay [6], above 100 µM. In addition, the TGI is 75.1 µM in assay [7] and above 100 µM in assay [8].
Take `O=C(Nc1ccc(Cl)c(Cl)c1)OCCN1c2ccccc2Sc2ccccc21`: the TGI in assay [1], in assay [2], in assay [3], in assay [4], in assay [5] and in assay [6] was above 10 µM throughout. The TGI in assay [7] and in assay [8] was above 10 µM throughout.
Take `CC(C)COC(=O)c1ccc2[nH]c(O)c(C=Nc3ccc(S(N)(=O)=O)cc3)c2c1`: the GI50 is 3.99 µM in assay [1]; 1.45 µM in assay [2]; 1.22 µM in assay [3]; 1.58 µM in assay [4]; 0.915 µM in assay [5]; 1.93 µM in assay [6]. For the same compound, the GI50 in assay [7] and in assay [8] was 1.65 µM each time. For the same compound, the TGI in assay [1] stood at 9.44 µM; in assay [2], 6.07 µM; in assay [3], 4.45 µM; in assay [4], 4.84 µM; in assay [5], 6.76 µM; in assay [6] it was 13.7 µM. In addition, the TGI in assay [7] was 4.52 µM; in assay [8], 4 µM.
Regarding `COc1ccc(-c2nn(-c3cccc(NC(=O)c4ccc(N5CCOCC5)c(C(F)(F)F)c4)c3)cc2-c2ccncc2)cc1Cl`, the GI50 is above 50 µM in assay [1]; 2.65 µM in assay [2]; 13.3 µM in assay [3]; 11.4 µM in assay [4]; 2.29 µM in assay [5]; 46.8 µM in assay [6]. Moreover, the GI50 in assay [7] was above 50 µM; in assay [8], 4.14 µM. The TGI in assay [1], in assay [2], in assay [3], in assay [4], in assay [5] and in assay [6] was above 50 µM throughout. In addition, the TGI in assay [7] and in assay [8] was above 50 µM in each case.
For `C=CS(=O)(=O)CCN1CC1`, the TGI in assay [1], in assay [2], in assay [3], in assay [4], in assay [5] and in assay [7] was above 10 µM in each case. The compound also came in with a TGI in assay [8] above 10 µM.
Regarding `O=C1CC(c2ccc(Cl)cc2)Oc2ccccc21` (stereo unspecified), the TGI is above 100 µM in assay [1]; 54.8 µM in assay [2]; above 100 µM in assay [3]; 56 µM in assay [4]; 53.9 µM in assay [5]; 77.7 µM in assay [6]. In assay [7], this compound registered a TGI of 63.4 µM.
On to `C=C1[C@@H]([C@@]2(C)C=CC(=O)C(C)(C)[C@@H]2CC(=O)OC)CC[C@@]2(C)C(c3ccoc3)OC(=O)[C@H]3O[C@]132` (stereo partly specified), for which the TGI in assay [1], in assay [2], in assay [3], in assay [5], in assay [6] and in assay [7] was above 100 µM in each case. This compound displayed a TGI in assay [8] above 100 µM.
With `COC(=O)C1=CC2OC1(C)CCC2=O` (stereo unspecified), the TGI in assay [1], in assay [3], in assay [4], in assay [6] and in assay [7] was above 100 µM throughout.
On to `CCCNc1nc2ccccc2c2c1S(=O)(=O)c1ccc(Cl)cc1C2=O`, for which the GI50 is 2.15 µM in assay [1]; 1.21 µM in assay [2]; 1.35 µM in assay [3]; 1.77 µM in assay [4]; 1.4 µM in assay [6]; 3.14 µM in assay [7]. The GI50 in assay [8] is 0.734 µM. Also, the TGI in assay [1], in assay [2], in assay [3], in assay [4], in assay [6] and in assay [7] was above 50 µM throughout. For the same compound, the TGI in assay [8] is above 50 µM.
In the case of `COc1cc(Cl)cc(-c2nn(-c3cccc(NC(=O)Nc4ccc(Cl)c(C(F)(F)F)c4)c3)cc2-c2ccncc2)c1`, the GI50 in assay [1] is 1.89 µM; in assay [2], 4.29 µM; in assay [3] it was 2.66 µM; in assay [4], 2.12 µM; in assay [5] it was 1.44 µM; in assay [6], 2.93 µM. Besides, the GI50 in assay [8] is 2.38 µM. The TGI worked out at 4.93 µM in assay [1]; 67.7 µM in assay [2]; 12.1 µM in assay [3]; 6.32 µM in assay [4]; 3.74 µM in assay [5]; 17.6 µM in assay [6]. Besides, in assay [8], the TGI came to 6.66 µM.
`O=C1OC(OCC#CCOC2OC(=O)C(Cl)=C2Cl)C(Cl)=C1Cl` (stereo unspecified): the TGI in assay [1] was 32.3 µM; in assay [2], 50.5 µM; in assay [3], 46.8 µM; in assay [4], 26.7 µM; in assay [6], 42.5 µM; in assay [7], 21.8 µM.
As for `COc1cc2c(c(OC3OC(CO)C(O)C(O)C3O)c1)C(=O)CC(c1ccc(O)cc1)O2` (stereo unspecified), the TGI in assay [1], in assay [2], in assay [3], in assay [5], in assay [6] and in assay [7] was above 100 µM throughout. The compound further yielded a TGI in assay [8] above 100 µM.
With `Cc1cccc(Nc2cnc(N)nc2N)c1`, the TGI in assay [1], in assay [4], in assay [5], in assay [6] and in assay [7] was above 100 µM in each case.
For `CNC(=O)OCC1C2=C(C(=O)C(C)=C(N)C2=O)N2CC3C(N3C)C12OC` (stereo unspecified), the TGI in assay [1] is 70.9 µM; in assay [4], above 100 µM; in assay [5], above 100 µM; in assay [6], above 100 µM; in assay [7], above 100 µM; in assay [8], above 100 µM.
